Earlier results on 4 molecules are cited in patent US6869622B2, “Composition for improving sleep quality and efficiency, and methods of preparing and using the composition” (Ancile Pharmaceuticals, Inc., priority 1999, dated 2005).

Where two headings read alike, the source gives them in different places.

Data set [1] has as its system enzyme system which catalyses breakdown of GABA in the brain. The note with it: 1 mmole/liter.
Data set [2] has as its system AMES assay and the SOS-chromo-test.
Data set [3] concerns mice. The settings on record: 26 mg/kg, IP or PO.
The test system of another data set is mouse. The note with it: 50 and 100 mg/kg, IP.
For data set [4], the system named is mice. The note with it: 12.5 and 25 mg/kg, IP in mice.
For data set [5], the system named is mice.

As for `CC(=O)O[C@@H]1CC(C)=C2[C@H]1[C@H](C)CC[C@H]2/C=C(\C)C(=O)O` [acetoxyvalerenic acid, Acetoxyvalerenic Acid], the “Inhibition of enzyme system which catalyses breakdown of GABA” value in data set [1] is 38%.

Take `CC(=O)OCc1cocc2c(C=O)ccc1-2` [baldrinal]: the Genotoxicity in vitro entry in data set [2] (AMES assay and SOS-chromo-test) is on record as “direct mutagenic effects”. In the data set with mice [3], the “Metabolic degradation of 14C-methacetin” value is listed as “distinctly inhibited”.

As for `CC(C)CC(=O)OCc1cocc2c(C=O)ccc1-2` [homobaldrinal], the Genotoxicity in vitro entry in data set [2] is “direct mutagenic effects”.

Consider `CC1=C2[C@H](/C=C(\C)C(=O)O)CC[C@@H](C)[C@H]2CC1` [valerenic acid, Valerenic Acid], for which the “Pentobarbital induced sleeping time” value with mouse was “potentiate”. The “Inhibition of enzyme system which catalyses breakdown of GABA” value in data set [1] is 20%. In addition, the Picrotoxin induced convulsions result in the data set on mice [4] is reported as “antagonized”. In addition, the Behavioural effects entry with mice [5] (100 mg/kg intraperitoneally, mice) was “decrease in motor activity, a decrease in respiratory rate, absence of righting reflex, ataxia, a decrease of abdominal muscle tone, and a decrease in rotarod performance”. Also, the “Performance on rotarod and traction tests” value with mice [5] (100 mg/kg, IP) is “statistical significance”.
